Tested on: HBV
Assay: HBV replication inhibition assay (BDNA assay) in HepG2.2.15 cells
Assay type: cell-based, Hepatitis B virus
Conditions: 6 days, encapsidated HBV DNA in supernatant
Method: HBV replication inhibition by the disclosed compounds were determined in cells infected or transfected with HBV or cells with stably integrated HBV, such as HepG2.2.15 cells (Sells et al. 1987). In this example, HepG2.2.15 cells were maintained in cell culture medium containing 10% fetal bovine serum (FBS), Geneticin, L-glutamine, penicillin and streptomycin. HepG2.2.15 cells were seeded in 96-well plates at a density of 40,000 cells/well and were treated with serially diluted compounds at a final DMSO concentration of 0.5% either alone or in combination by adding drugs in a checker box format. Cells were incubated with compounds for three days, after which medium was removed and fresh medium containing compounds was added to cells and incubated for another three days. At day 6, supernatant was removed and treated with DNase at 37° C. for 60 minutes, followed by enzyme inactivation at 75° C. for 15 minutes. Encapsidated HBV DNA was released from the virions and covalently linked HBV polymerase by incubating in lysis buffer (Affymetrix QS0010) containing 2.5 μg proteinase K at 50° C. for 40 minutes. HBV DNA was denatured by addition of 0.2 M NaOH and detected using a branched DNA (BDNA) QuantiGene assay kit according to manufacturer recommendation (Affymetrix). HBV DNA levels were also quantified using qPCR, based on amplification of encapsidated HBV DNA extraction with QuickExtraction Solution (Epicentre Biotechnologies) and amplification of HBV DNA using HBV specific PCR probes that can hybridize to HBV DNA and a fluorescently labeled probe for quantitation. In addition, cell viability of HepG2.2.15 cells incubated with test compounds alone or in combination was determined by using CellTitre-Glo reagent according to the manufacturer protocol (Promega). The mean background signal from wells containing only culture medium was subtracted from all other samples, and percent inhibition at each compound concentration was calculated by normalizing to signals from HepG2.2.15 cells treated with 0.5% DMSO using equation E1.
% inhibition(DMSOave−Xi)DMSOave×100% E1:
where DMSOave is the mean signal calculated from the wells that were treated with DMSO control (0% inhibition control) and Xi is the signal measured from the individual wells. EC50 values, effective concentrations that achieved 50% inhibitory effect, were determined by non-linear fitting using Graphpad Prism software (San Diego, Calif.) and equation E2.
Y=Ymin+(Ymax−Ymin)/(1+10(Log EC50−X)×HillSlope) E2:
where Y represents percent inhibition values and X represents the logarithm of compound concentrations.
Selected disclosed compounds were assayed in the HBV replication assay (BDNA assay), as described above, and a representative group of these active compounds is shown in Table 5.

| SMILES | EC50 [nM] |
| --- | --- |
| C[C@@H]1Cc2nn3c(c2CN1C(=O)Nc1ccc(F)c(C#N)c1)C(F)(F)CCC(O)(CF)C3 (single isomer, unassigned) [Example 86, (3R,8S*)—N-(3-Cyano-4-fluorophenyl)-11,11-difluoro-8-(fluoromethyl)-8-hydroxy-3-methyl-3,4,8,9,10,11-hexahydro-1H-pyrido[4′,3′:3,4]pyrazolo[1,5-a]azepine-2(7H)-carboxamide] | 20 |
| C[C@@H]1Cc2nn3c(c2CN1C(=O)Nc1ccnc(Br)c1F)C(F)(F)CCC(O)(CF)C3 (single isomer, unassigned) [Example 87, (3R,8S*)—N-(2-Bromo-3-fluoropyridin-4-yl)-11,11-difluoro-8-(fluoromethyl)-8-hydroxy-3-methyl-3,4,8,9,10,11-hexahydro-1H-pyrido[4′,3′:3,4]pyrazolo[1,5-a]azepine-2(7H)-carboxamide] | 39 |
| C[C@@H]1Cc2nn3c(c2CN1C(=O)Nc1ccnc(Br)c1F)C(F)(F)CC(O)CC3 (single isomer, unassigned) [Example 118, (3R,9R*)—N-(2-Bromo-3-fluoropyridin-4-yl)-11,11-difluoro-9-hydroxyl-3-methyl-3,4,8,9,10,11-hexahydro-1H-pyrido[4′,3′:3,4]pyrazolo[1,5-a]azepine-2(7H)-carboxamide] | 3 |
| N#Cc1cc(NC(=O)N2CCc3nn4c(c3C2)C(F)(F)CC(O)CC4)ccc1F (single isomer, unassigned) [Example 138, (R*)—N-(3-Cyano-4-fluorophenyl)-11,11-difluoro-9-hydroxy-3,4,8,9,10,11-hexahydro-1H-pyrido[4′,3′:3,4]pyrazolo[1,5-a]azepine-2(7H)-carboxamide] | 1 |
| C[C@@H]1Cc2nn3c(c2CN1C(=O)Nc1ccc(F)c(C#N)c1)C(F)(F)CCC(O)(COCC(F)F)C3 (single isomer, unassigned) [Example 93, (3R,8R*)—N-(3-Cyano-4-fluorophenyl)-8-((2,2-difluoroethoxy)methyl)-11,11-difluoro-8-hydroxy-3-methyl-3,4,89,10,11-hexahydro-1H-pyrido[4′,3′:3,4]pyrazolo[1,5-a]azepine-2(7H)-carboxamide] | 45 |
| N#Cc1cc(NC(=O)N2CCc3nn4c(c3C2)C(F)(F)CC(CO)CC4)ccc1F (single isomer, unassigned) [Example 134, (S*)—N-(3-Cyano-4-fluorophenyl)-11,11-difluoro-9-(hydroxymethyl) -3,4,8,9,10,11-hexahydro-1H-pyrido[4′,3′:3,4]pyrazolo[1,5-a]azepine-2(7H)-carboxamide] | 17 |
| C[C@@H]1Cc2nn3c(c2CN1C(=O)Nc1ccnc(Br)c1F)C(F)(F)CC(O)(CF)CC3 (single isomer, unassigned) [Example 129, (3R,9S*)—N-(2-Bromo-3-fluoropyridin-4-yl)-11,11-difluoro-9-(fluoromethyl)-9-hydroxy-3-methyl-3,4,8,9,10,11-hexahydro-1H-pyrido[4′,3′:3,4]pyrazolo[1,5-a]azepine-2(7H)-carboxamide] | 6 |
| N#Cc1cc(NC(=O)N2CCc3nn4c(c3C2)C(F)(F)CCC(O)(COCC(F)F)C4)ccc1F (single isomer, unassigned) [Example 31, (R*)—N-(3-Cyano-4-fluorophenyl)-8-((2,2-difluoroethoxy)methyl)-11,11-difluoro-8-hydroxy-3,4,8,9,10,11-hexahydro-1H-pyrido[4′,3′:3,4]pyrazolo[1,5-a]azepine-2(7H)-carboxamide] | 42 |
| C[C@@H]1Cc2nn3c(c2CN1C(=O)Nc1ccc(F)c(C#N)c1)C(F)(F)CC(O)(CF)CC3 (single isomer, unassigned) [Example 130, (3R,9S*)—N-(3-Cyano-4-fluorophenyl)-11,11-difluoro-9-(fluoromethyl)-9-hydroxy-3-methyl-3,4,8,9,10,11-hexahydro-1H-pyrido[4′,3′:3,4]pyrazolo[1,5-a]azepine-2(7H)-carboxamide] | 2 |
| C[C@@H]1Cc2nn3c(c2CN1C(=O)Nc1ccnc(Br)c1F)C(F)(F)CCC(F)(CO)C3 (single isomer, unassigned) [Example 112, (3R,8S*)—N-(2-Bromo-3-fluoropyridin-4-yl)-8,11,11-trifluoro-8-(hydroxymethyl)-3-methyl-3,4,8,9,10,11-hexahydro-1H-pyrido[4′,3′:3,4]pyrazolo[1,5-a]azepine-2(7H)-carboxamide] | 45 |
| C[C@@H]1Cc2nn3c(c2CN1C(=O)Nc1ccnc(Br)c1F)C(F)(F)CCC(O)(CC#N)C3 (single isomer, unassigned) [Example 91, (3R,8R*)—N-(2-Bromo-3-fluoropyridin-4-yl)-8-(cyanomethyl)-11,11-difluoro-8-hydroxy-3-methyl-3,4,8,9,10,11-hexahydro-1H-pyrido[4′,3′:3,4]pyrazolo[1,5-a]azepine-2(7H)-carboxamide] | 30 |
| C#CC1(O)CCC(F)(F)c2c3c(nn2C1)C[C@@H](C)N(C(=O)Nc1ccc(F)c(C#N)c1)C3 (single isomer, unassigned) [Example 98, (3R,8S*)—N-(3-Cyano-4-fluorophenyl)-8-ethynyl-11,11-difluoro-8-hydroxy-3-methyl-3,4,8,9,10,11-hexahydro-1H-pyrido[4′,3′:3,4]pyrazolo[1,5-a]azepine-2(7H)-carboxamide] | 51 |
| C#CC1(O)CCC(F)(F)c2c3c(nn2C1)CCN(C(=O)Nc1ccnc(C(F)F)c1F)C3 (single isomer, unassigned) [Example 66, (S*)—N-(2-(Difluoromethyl)-3-fluoropyridin-4-yl)-8-ethynyl-11,11-difluoro-8-hydroxy-3,4,8,9,10,11-hexahydro-1H-pyrido[4′,3′:3,4]pyrazolo[1,5-a]azepine-2(7H)-carboxamide] | 149 |
| N#Cc1cc(NC(=O)N2CCc3nn4c(c3C2)C(F)(F)CCC(COCC(F)F)C4)ccc1F (single isomer, unassigned) [Example 27, (S*)—N-(3-Cyano-4-fluorophenyl)-8-((2,2-difluoroethoxy)methyl)-11,11-difluoro-3,4,8,9,10,11-hexahydro-1H-pyrido[4′,3′:3,4]pyrazolo[1,5-a]azepine-2(7H)-carboxamide] | 6 |
| C[C@@H]1Cc2nn3c(c2CN1C(=O)Nc1ccnc(Br)c1F)C(F)(F)CCC(F)(CO)C3 (single isomer, unassigned) [Example 115, (3R,8R*)—N-(2-Bromo-3-fluoropyridin-4-yl)-8,11,11-trifluoro-8-(hydroxylmethyl)-3-methyl-3,4,8,9,10,11-hexahydro-1H-pyrido[4′,3′:3,4]pyrazolo[1,5-a]azepine-2(7H)-carboxamide] | 5 |
| C[C@@H]1Cc2nn3c(c2CN1C(=O)Nc1ccnc(C(F)F)c1F)C(F)(F)CCC(O)(CF)C3 (single isomer, unassigned) [Example 85, (3R,8R*)—N-(2-(Difluoromethyl)-3-fluoropyridin-4-yl)-11,11-difluoro-8-(fluoromethyl)-8-hydroxy-3-methyl-3,4,8,9,10,11-hexahydro-1H-pyrido[4′,3′:3,4]pyrazolo[1,5-a]azepine-2(7H)-carboxamide] | 45 |
| N#CCC1(O)CCC(F)(F)c2c3c(nn2C1)CCN(C(=O)Nc1ccnc(C(F)F)c1F)C3 (single isomer, unassigned) [Example 44, (S*)-8-(Cyanomethyl)-N-(2-(difluoromethyl)-3-fluoropyridin-4-yl)-11,11-difluoro-8-hydroxy-3,4,8,9,10,11-hexahydro-1H-pyrido[4′,3′:3,4]pyrazolo[1,5-a]azepine-2(7H)-carboxamide] | 333 |
| C[C@@H]1Cc2nn3c(c2CN1C(=O)Nc1ccnc(C(F)F)c1F)C(F)(F)CCC(F)(CO)C3 (single isomer, unassigned) [Example 116, (3R,8R*)—N-(2-(Difluoromethyl)-3-fluoropyridin-4-yl)-8,11,11-trifluoro-8-(hydroxymethyl)-3-methyl-3,4,8,9,10,11-hexahydro-1H-pyrido[4′,3′:3,4]pyrazolo[1,5-a]azepine-2(7H)-carboxamide] | 10 |
| O=C(Nc1ccnc(C(F)F)c1F)N1CCc2nn3c(c2C1)C(F)(F)CCC(O)(COCC(F)F)C3 (single isomer, unassigned) [Example 33, (R*)-8-((2,2-Difluoroethoxy)methyl)-N-(2-(difluoromethyl)-3-fluoropyridin-4-yl)-11,11-difluoro-8-hydroxy-3,4,8,9,10,11-hexahydro-1H-pyrido[4′,3′:3,4]pyrazolo[1,5-a]azepine-2(7H)-carboxamide] | 356 |

— patent US20220323455A1, “FUSED HETEROCYCLIC DERIVATIVES AS ANTIVIRAL AGENTS” (priority 2019, published 2022)
